Test results published in US4605744A, “Imidazole derivatives” (Hoffmann-La Roche Inc., priority 1985, dated 1986).
Converted amounts (≈) assume the structure as drawn. Like-named read-outs stand apart in the source and are kept apart here.

How the values were obtained:
[1] = tested on: S. pyogenes 4; experiment: In vivo antibacterial activity (PD50); details: Streptococcus pyogenes, 4, sc, sc, read-out: PD50
[2] = tested on: E. aerogenes 8; experiment: In vivo antibacterial activity (PD50)
Experimental: (§2) The results in these Tables and the PD50 's were determined by the procedure set forth on page 160 in Beskid et al., Antimicrobial Agents and Chemotherapy, Vol. 20, No. 2 pp. 159-167 (Aug. 1981) for "in vivo studies".

[3] = tested on: P. aeruginosa 6148B; experiment: In vivo antibacterial activity (PD50); details: Pseudomonas aeruginosa, sc, challenge 32 LD50s, 2 treatments, Table 11
Experimental: as §2

[4] = tested on: S. marcescens SM; experiment: In vivo antibacterial activity (PD50); details: sc
Experimental: as §2

[5] = tested on: P. aeruginosa 6799; experiment: In vivo antibacterial activity (PD50); details: Pseudomonas aeruginosa, 6799, sc, sc, 2 treatments, read-out: PD50
Experimental: as §2

[6] = tested on: S. faecalis C1; experiment: In vivo antibacterial activity (PD50); details: sc
Experimental: as §2

[7] = tested on: P. aeruginosa 6720; experiment: In vivo antibacterial activity (PD50); details: Pseudomonas aeruginosa, 6720, sc, 2 treatments
Experimental: as §2

[8] = tested on: S. pneumoniae 6302; experiment: In vivo antibacterial activity (PD50); details: Streptococcus pneumoniae, 6302, sc
Experimental: as §2

[9] = tested on: E. coli R-563; experiment: In vitro antibacterial activity (MIC); assay type: cell-based; details: Escherichia coli, R563
In short: (§1)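 Mueller-Hinton broth carries the compound at 128–0.008 μg/ml; diluted drug may be used fresh or stored frozen at -10° to -70° C before use. Wells are seeded with a 10^-2 dilution of overnight culture and incubated overnight at 37° C.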

[10] = tested on: P. aeruginosa Stone 130; experiment: In vitro antibacterial activity (MIC); assay type: cell-based
In short: as §1

[11] = tested on: P. aeruginosa 8710; experiment: In vitro antibacterial activity (MIC); assay type: cell-based
In short: as §1

[12] = tested on: S. faecalis C1; experiment: In vitro antibacterial activity (MIC); assay type: cell-based
In short: as §1

[13] = tested on: S. pneumoniae 6301; experiment: In vitro antibacterial activity (MIC); assay type: cell-based
In short: as §1

[14] = tested on: S. marcescens S1; experiment: In vitro antibacterial activity (MIC); assay type: cell-based; details: Serratia marcescens, S1
In short: as §1

[15] = tested on: E. coli 5152; experiment: In vitro antibacterial activity (MIC); assay type: cell-based
In short: as §1

[16] = tested on: C. freundii CDC6; experiment: In vitro antibacterial activity (MIC); assay type: cell-based; details: Citrobacter freundii, CDC6
In short: as §1

[17] = tested on: K. pneumoniae 35; experiment: In vitro antibacterial activity (MIC); assay type: cell-based
In short: as §1

[18] = tested on: P. aeruginosa B; experiment: In vitro antibacterial activity (MIC); assay type: cell-based; details: Pseudomonas aeruginosa, read-out: MIC
In short: as §1

[19] = tested on: P. aeruginosa 503-56; experiment: In vitro antibacterial activity (MIC); assay type: cell-based
In short: as §1

[20] = tested on: S. pyogenes 503-782; experiment: In vitro antibacterial activity (MIC); assay type: cell-based
In short: as §1

[21] = tested on: K. pneumoniae 503-964; experiment: In vitro antibacterial activity (MIC); assay type: cell-based
In short: as §1

[22] = tested on: P. aeruginosa 5700; experiment: In vitro antibacterial activity (MIC); assay type: cell-based
In short: as §1

[23] = tested on: S. pneumoniae 6302; experiment: In vitro antibacterial activity (MIC); assay type: cell-based
In short: as §1

[24] = tested on: E. coli 5152; experiment: In vivo antibacterial activity (PD50); details: Escherichia coli, 5152, sc
[25] = tested on: P. aeruginosa 503-56; experiment: In vivo antibacterial activity (PD50); details: Pseudomonas aeruginosa, 50356, sc
[26] = tested on: S. aureus Smith; experiment: In vivo antibacterial activity (PD50); details: Staphylococcus aureus, sc
[27] = challenge 100 LD50s, 2 treatments, Table 10

## CC1(C)S[C@@H]2[C@H](/N=C/N3CCCCCC3)C(=O)N2[C@H]1C(=O)O [Amdinocillin, amdinocillin, reference compound]
[1]; Table 9
  ED50: 60 mg/kg
[1]; challenge 3.3 LD50s, 2 treatments, Table 11
  ED50: 11 mg/kg
[1]; [27]
  ED50: 8.1 mg/kg
[2]; Klebsiella aerogenes, 8, sc, read-out: PD50, sc, challenge 10 LD50s, 2 treatments, Table 11
  ED50: 167 mg/kg
[2]; Klebsiella aerogenes, 8, sc, Table 9, read-out: PD50
  ED50: > 250 mg/kg
[3]
  ED50: > 250 mg/kg
[4]; Serratia marcescens, Table 9
  ED50: > 250 mg/kg
[4]; challenge 489 LD50s, 2 treatments, Table 11
  PD50: > 250 mg/kg
[5]; challenge 48 LD50s, Table 10
  ED50: 117 mg/kg
[5]; challenge 71 LD50s, Table 11
  ED50: > 250 mg/kg
[6]; Enterococcus faecalis, C1, Table 9
  ED50: > 250 mg/kg
[6]; challenge 10 LD50s, 1 treatment, Table 11
  PD50: > 250 mg/kg
[7]; challenge 35 LD50s, Table 11
  ED50: > 250 mg/kg
[7]; challenge 3511 LD50s, Table 10
  ED50: > 250 mg/kg
[8]; Table 9
  ED50: 204 mg/kg
[8]; challenge 1000 LD50s, 1 treatment, Table 11
  ED50: > 250 mg/kg
[9]
  MIC: 0.125 mg/L (≈ 0.384 µM)
[10]
  MIC: 128 mg/L (≈ 393 µM)
[10]; Pseudomonas aeruginosa, STONE130
  MIC: > 128 mg/L
[11]; P. aeruginosa 8710
  MIC: 128 mg/L (≈ 393 µM)
[11]; Pseudomonas aeruginosa, 8710, P. aeruginosa 8710
  MIC: > 128 mg/L
[12]; Enterococcus faecalis, C1, S. faecalis C1
  MIC: > 128 mg/L
[12]; S. faecalis C1
  MIC: 128 mg/L (≈ 393 µM)
[13]; S. pneumoniae 6301
  MIC: 1 mg/L (≈ 3.07 µM)
[13]; Streptococcus pneumoniae, 6301, S. pneumoniae 6301, read-out: MIC
  MIC: 2 mg/L (≈ 6.15 µM)
[14]
  MIC: 0.125 mg/L (≈ 0.384 µM)
[15]; E. coli 5152
  MIC: 16 mg/L (≈ 49.2 µM)
[15]; Escherichia coli, 5152, E. coli 5152, read-out: MIC
  MIC: 8 mg/L (≈ 24.6 µM)
[16]
  MIC: 0.125 mg/L (≈ 0.384 µM)
[17]; Klebsiella pneumoniae, 35, K. pneumoniae 35
  MIC: 0.125 mg/L (≈ 0.384 µM)
[17]; Klebsiella pneumoniae, K. pneumoniae 35, read-out: MIC
  MIC: 0.062 mg/L (≈ 0.191 µM)
[18]
  MIC: 0.062 mg/L (≈ 0.191 µM)
[19]; P. aeruginosa 503-56
  MIC: 128 mg/L (≈ 393 µM)
[19]; Pseudomonas aeruginosa, 50356, P. aeruginosa 503-56
  MIC: > 128 mg/L
[20]; Streptococcus pyogenes, 503782, S. pyogenes 503-782
  MIC: > 128 mg/L
[20]; Streptococcus pyogenes, 503782, S. pyogenes 503-782, read-out: MIC
  MIC: 1 mg/L (≈ 3.07 µM)
[21]; Klebsiella pneumoniae, 503964, K. pneumoniae 503-964
  MIC: 0.125 mg/L (≈ 0.384 µM)
[21]; Klebsiella pneumoniae, 503964, K. pneumoniae 503-964, read-out: MIC
  MIC: 0.062 mg/L (≈ 0.191 µM)
[22]; P. aeruginosa 5700
  MIC: > 128 mg/L
[22]; Pseudomonas aeruginosa, 5700, P. aeruginosa 5700
  MIC: 128 mg/L (≈ 393 µM)
[23]; S. pneumoniae 6302
  MIC: 2 mg/L (≈ 6.15 µM)
[23]; Streptococcus pneumoniae, 6302, S. pneumoniae 6302, read-out: MIC
  MIC: 4 mg/L (≈ 12.3 µM)
[24]; Table 9
  ED50: > 250 mg/kg
[24]; challenge 2717 LD50s, 2 treatments, Table 10
  ED50: 84 mg/kg
[24]; challenge 4780 LD50s, 2 treatments, Table 11
  ED50: 150 mg/kg
[25]; Table 9
  ED50: > 250 mg/kg
[25]; challenge 4.7 LD50s, 2 treatments, Table 10
  ED50: > 250 mg/kg
[25]; challenge 50 LD50s, 2 treatments, Table 11
  ED50: > 250 mg/kg
[25]; [27]
  ED50: > 250 mg/kg
[26]; Table 9
  ED50: 69 mg/kg
[26]; challenge 48 LD50s, 2 treatments, Table 10
  ED50: 22 mg/kg
[26]; challenge 70 LD50s, 2 treatments, Table 11
  ED50: 13 mg/kg
[26]; [27]
  ED50: 12 mg/kg
